According to PMC7217150, “Synthesis, Modification, and Biological Evaluation of a Library of Novel Water‐Soluble Thiopyridone‐Based Organometallic Complexes and Their Unexpected (Biological) Behavior” (Chemistry (Weinheim an Der Bergstrasse, Germany), 2020):
Where two headings read alike, the source gives them in different places.

Experiments:
SW480 cells = conditions: ICP‐MS, 2 h exposure
SW480 [1] = test: MTT cytotoxicity assay, monolayer culture; format: cell-based, human
Text: (§1) A549 (non‐small cell lung carcinoma), SW480 and HCT‐116 (both colon carcinoma) were kindly provided by Brigitte Marian, Institute of Cancer Research, Department of Medicine I, Medical University of Vienna, Austria. The cell line CH1/PA‐1 (ovarian teratocarcinoma) was kindly provided by Lloyd R. Kelland (CRC Centre for Cancer Therapeutics, Institute of Cancer Research, Sutton, UK). All cell culture media (including supplements) and reagents were obtained from Sigma–Aldrich, and all plasticware from StarLab, unless indicated otherwise.

A549 [2] = test: MTT cytotoxicity assay, monolayer culture; format: cell-based, human; conditions: exposure time 96 h, means ± SDs
Text: as §1

CH1/PA‐1 [3] = test: MTT cytotoxicity assay, monolayer culture; format: cell-based, human; conditions: CH1/PA‐1, MTT assay, exposure time 96 h, means ± SDs
Text: as §1

HCT‐116 = HCT‐116 multicellular spheroids, 96 h drug exposure
Experimental: (§2) A549, CH1/PA‐1 and SW480 cells were grown in MEM supplemented with 10 % fetal calf serum (FCS; from Biowest), 1 mM sodium pyruvate, 4 mM L‐glutamine and 1 % v/v nonessential amino acids (from 100×solution) and L‐glutamine. HCT‐116 cells were maintained in McCoy's 5a medium supplemented with 10 % FCS and L‐glutamine. Adherent monolayer cultures were grown in 75 cm^2 flasks. For spheroid culture, A549, CH1/PA‐1 and HCT‐116 cells were harvested from culture flasks by trypsinization, resuspended in their respective supplemented medium and seeded in ultra‐low attachment round‐bottom 96‐well plates (Corning Costar) at a density of 500 viable cells per well. Plates were incubated for 96 h to allow spheroid formation prior to use for the tests. All cultures were incubated in a humidified incubator at 37 °C with 5 % CO2.
(§3) Cytotoxicity in multicellular spheroids was determined by the fluorimetric resazurin assay. […] After incubation for 96 h, 20 μL of a 440 μM resazurin sodium salt solution in PBS were added to each well, and the plates were incubated for further 16 h. Fluorescence was measured with a Synergy HT reader (BioTek) with an excitation wavelength of 530 nm and emission wavelength of 590 nm. For both assays, at least three independent experiments (or two in case of poor activity) were performed, each with triplicates per concentration level, and the 50 % inhibitory concentrations (IC50) relative to untreated controls were interpolated from concentration‐effect curves.

A549 [4] = conditions: A549 multicellular spheroids, 96 h drug exposure
Experimental: as §2, §3

CH1/PA‐1 [5] = conditions: CH1/PA‐1 multicellular spheroids, 96 h drug exposure
Experimental: as §2, §3

[6] = tested on: human cancer cell lines CH1/PA‐1, SW480, A549; conditions: tested cancer cell lines
Experimental: Cytotoxicity of the compounds in monolayer cultures was determined by the colorimetric MTT assay (MTT=3‐(4,5‐dimethyl‐2‐thiazolyl)‐2,5‐diphenyl‐2H‐tetrazolium bromide). 1×10^3 CH1/PA‐1, 2×10^3 SW480 and 3×10^3 A549 cells were seeded in 100 μL supplemented MEM per well into 96‐well flat‐bottom microculture plates. […] After 96 h, the drug‐containing medium was replaced with 100 μL of RPMI 1640/MTT mixture [6 parts of RPMI 1640 medium (supplemented with 10 % heat‐inactivated fetal bovine serum and 4 mM L‐glutamine), 1 part of MTT solution in phosphate‐buffered saline (5 mg mL^−1)]. After incubation for 4 h, the mixture was replaced with 150 μL DMSO per well to dissolve the formazan product formed by viable cells. Optical densities at 550 nm (and at a reference wavelength of 690 nm) were measured with a microplate reader (ELx808, Bio‐Tek).

SW480 [7] = test: Cell cycle distribution, flow cytometry with propidium iodide; format: cell-based, human; conditions: for Cell cycle distribution G1, % / Cell cycle distribution G2/M, % / Cell cycle distribution S, %: 24 h, mean ± SD; for Relative change in cell cycle distribution G1, % / Relative change in cell cycle distribution G2/M, % / Relative change in cell cycle distribution S, %: difference to untreated control; for decrease in G1 phase: SW480 cells
Summary of the method: (§4)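 CH1/PA-1 and SW480 cells were allowed to attach for 24 h, then exposed continuously to compounds for 24 h at 37 °C. Nuclei were stained overnight at 4 °C with propidium iodide (50 μg mL^−1) in Triton/citrate buffer. 5×10^3 cells were analysed by flow cytometry, with G1/S/G2/M fractions fitted by the Watson Pragmatic model.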

CH1/PA‐1 [8] = test: as above; format: cell-based, human; conditions: for Cell cycle distribution G1, % / Cell cycle distribution G2/M, % / Cell cycle distribution S, %: 24 h, mean ± SD; for Relative change in cell cycle distribution G1, % / Relative change in cell cycle distribution G2/M, % / Relative change in cell cycle distribution S, %: difference to untreated control
Summary of the method: as §4

[9] = pH 7.2
Experimental: Stock solutions containing the desired complex in DMSO (5 mM) were diluted with phosphate buffer (pH 7.2) to a final concentration of […] compound in 1 % DMSO/20 mM buffer and directly analyzed by four different isocratic UHPLC runs (Δ=5 %). The lipophilicity parameters logkw and lipophilicity indices φ0 were calculated according to literature.7, 37

[10] = SW480, MTT assay, exposure time 96 h, means ± SDs

Chlorido[1‐benzyl‐2‐methyl‐3‐oxo‐κO‐pyridine‐4(1H)‐thionato‐κS](η^5‐1,2,3,4,5‐pentamethylcyclopentadienyl)rhodium(III) [Compound 5 c]
Cellular accumulation (SW480 cells; 20 μM): 855±66 fg/cell
IC50 (SW480 [1]; [10]): 0.28 ± 0.02 µM
IC50 (SW480 [1]; SW480, as listed in Table 3): 0.28 ± 0.02 µM
IC50 (A549 [2]): 0.72 ± 0.11 µM
IC50 (CH1/PA‐1 [3]): 0.37 ± 0.04 µM
IC50 (HCT‐116): 62 ± 1 µM
IC50 (A549 [4]): 79 ± 5 µM
IC50 (CH1/PA‐1 [5]): 59 ± 10 µM
IC50 values, in words [6]: high nanomolar range
Cell cycle distribution G1, % (SW480 [7]; SW480, 2.5 µM): 44 ± 10%
Cell cycle distribution G2/M, % (SW480 [7]; SW480, 2.5 µM): 20 ± 6%
Cell cycle distribution S, % (SW480 [7]; SW480, 2.5 µM): 36 ± 1%
Relative change in cell cycle distribution G1, % (SW480 [7]; SW480, 2.5 µM): -4%
Relative change in cell cycle distribution G2/M, % (SW480 [7]; SW480, 2.5 µM): 1%
Relative change in cell cycle distribution S, % (SW480 [7]; SW480, 2.5 µM): 3%
Cell cycle distribution G1, % (SW480 [7]; SW480, 5 µM): 44 ± 5%
Cell cycle distribution G2/M, % (SW480 [7]; SW480, 5 µM): 17 ± 4%
Cell cycle distribution S, % (SW480 [7]; SW480, 5 µM): 39 ± 1%
Relative change in cell cycle distribution G1, % (SW480 [7]; SW480, 5 µM): -4%
Relative change in cell cycle distribution G2/M, % (SW480 [7]; SW480, 5 µM): -2%
Relative change in cell cycle distribution S, % (SW480 [7]; SW480, 5 µM): 6%
Cell cycle distribution G1, % (SW480 [7]; SW480, 10 µM): 50 ± 2%
Cell cycle distribution G2/M, % (SW480 [7]; SW480, 10 µM): 16 ± 5%
Cell cycle distribution S, % (SW480 [7]; SW480, 10 µM): 34 ± 5%
Relative change in cell cycle distribution G1, % (SW480 [7]; SW480, 10 µM): 2%
Relative change in cell cycle distribution G2/M, % (SW480 [7]; SW480, 10 µM): -3%
Relative change in cell cycle distribution S, % (SW480 [7]; SW480, 10 µM): 1%
decrease in G1 phase (SW480 [7]; at applicable concentrations): < 9%
Cell cycle distribution G1, % (CH1/PA‐1 [8]; CH1/PA-1, 1.25 µM): 40 ± 14%
Cell cycle distribution G2/M, % (CH1/PA‐1 [8]; CH1/PA-1, 1.25 µM): 22 ± 7%
Cell cycle distribution S, % (CH1/PA‐1 [8]; CH1/PA-1, 1.25 µM): 38 ± 7%
Relative change in cell cycle distribution G1, % (CH1/PA‐1 [8]; CH1/PA-1, 1.25 µM): 0%
Relative change in cell cycle distribution G2/M, % (CH1/PA‐1 [8]; CH1/PA-1, 1.25 µM): -2%
Relative change in cell cycle distribution S, % (CH1/PA‐1 [8]; CH1/PA-1, 1.25 µM): 2%
Cell cycle distribution G1, % (CH1/PA‐1 [8]; CH1/PA-1, 2.5 µM): 34 ± 5%
Cell cycle distribution G2/M, % (CH1/PA‐1 [8]; CH1/PA-1, 2.5 µM): 24 ± 4%
Cell cycle distribution S, % (CH1/PA‐1 [8]; CH1/PA-1, 2.5 µM): 42 ± 3%
Relative change in cell cycle distribution G1, % (CH1/PA‐1 [8]; CH1/PA-1, 2.5 µM): -6%
Relative change in cell cycle distribution G2/M, % (CH1/PA‐1 [8]; CH1/PA-1, 2.5 µM): 0%
Relative change in cell cycle distribution S, % (CH1/PA‐1 [8]; CH1/PA-1, 2.5 µM): 6%
Cell cycle distribution G1, % (CH1/PA‐1 [8]; CH1/PA-1, 5 µM): 30 ± 10%
Cell cycle distribution S, % (CH1/PA‐1 [8]; CH1/PA-1, 5 µM): 42 ± 6%
Relative change in cell cycle distribution G1, % (CH1/PA‐1 [8]; CH1/PA-1, 5 µM): -10%
Relative change in cell cycle distribution G2/M, % (CH1/PA‐1 [8]; CH1/PA-1, 5 µM): 4%
Relative change in cell cycle distribution S, % (CH1/PA‐1 [8]; CH1/PA-1, 5 µM): 6%
decrease in G1 phase (CH1/PA‐1 [8]; CH1/PA‐1 cells, 2.5 μM): 6%

CC1=C2[O][Rh+]([Cl])[S]=C2C=CN1C.Cc1c(C)c(C)[c-](C)c1C [Compound 5 a, Chlorido[1,2‐dimethyl‐3‐oxo‐κO‐pyridine‐4(1H)‐thionato‐κS](η^5‐1,2,3,4,5‐pentamethylcyclopentadienyl)rhodium(III)]
Cellular accumulation (SW480 cells; 50 μM): 118±35 fg/cell
IC50 (SW480 [1]; [10]): 5.5 ± 1.1 µM
IC50 (SW480 [1]; SW480, as listed in Table 3): 5.54 ± 1.07 µM
IC50 (A549 [2]): 117 ± 19 µM
IC50 (CH1/PA‐1 [3]): 11 ± 2 µM
IC50 (HCT‐116): 140 ± 20 µM
IC50 (A549 [4]): 367 ± 24 µM
IC50 (CH1/PA‐1 [5]): 144 ± 7 µM
φ0 (chromatographic lipophilicity index) [9]: 5.91
Cell cycle distribution G1, % (SW480 [7]; SW480, 5 µM): 44 ± 1%
Cell cycle distribution G2/M, % (SW480 [7]; SW480, 5 µM): 26 ± 2%
Cell cycle distribution S, % (SW480 [7]; SW480, 5 µM): 30 ± 4%
Relative change in cell cycle distribution G1, % (SW480 [7]; SW480, 5 µM): -4%
Relative change in cell cycle distribution G2/M, % (SW480 [7]; SW480, 5 µM): 7%
Relative change in cell cycle distribution S, % (SW480 [7]; SW480, 5 µM): -3%
Cell cycle distribution G1, % (SW480 [7]; SW480, 10 µM): 38 ± 4%
Cell cycle distribution G2/M, % (SW480 [7]; SW480, 10 µM): 20 ± 4%
Cell cycle distribution S, % (SW480 [7]; SW480, 10 µM): 42 ± 1%
Relative change in cell cycle distribution G1, % (SW480 [7]; SW480, 10 µM): -10%
Relative change in cell cycle distribution G2/M, % (SW480 [7]; SW480, 10 µM): 1%
Relative change in cell cycle distribution S, % (SW480 [7]; SW480, 10 µM): 9%
Cell cycle distribution G1, % (SW480 [7]; SW480, 20 µM): 46 ± 3%
Cell cycle distribution G2/M, % (SW480 [7]; SW480, 20 µM): 12 ± 1%
Cell cycle distribution S, % (SW480 [7]; SW480, 20 µM): 42 ± 2%
Relative change in cell cycle distribution G1, % (SW480 [7]; SW480, 20 µM): -2%
Relative change in cell cycle distribution G2/M, % (SW480 [7]; SW480, 20 µM): -7%
Relative change in cell cycle distribution S, % (SW480 [7]; SW480, 20 µM): 9%
decrease in G1 phase (SW480 [7]; 10 μM): 10%
Cell cycle distribution G1, % (CH1/PA‐1 [8]; CH1/PA-1, 10 µM): 28 ± 1%
Cell cycle distribution G2/M, % (CH1/PA‐1 [8]; CH1/PA-1, 10 µM): 28 ± 5%
Cell cycle distribution S, % (CH1/PA‐1 [8]; CH1/PA-1, 10 µM): 44 ± 5%
Relative change in cell cycle distribution G1, % (CH1/PA‐1 [8]; CH1/PA-1, 10 µM): -12%
Relative change in cell cycle distribution G2/M, % (CH1/PA‐1 [8]; CH1/PA-1, 10 µM): 4%
Relative change in cell cycle distribution S, % (CH1/PA‐1 [8]; CH1/PA-1, 10 µM): 8%
Cell cycle distribution G1, % (CH1/PA‐1 [8]; CH1/PA-1, 20 µM): 27 ± 5%
Cell cycle distribution G2/M, % (CH1/PA‐1 [8]; CH1/PA-1, 20 µM): 32 ± 4%
Cell cycle distribution S, % (CH1/PA‐1 [8]; CH1/PA-1, 20 µM): 41 ± 5%
Relative change in cell cycle distribution G1, % (CH1/PA‐1 [8]; CH1/PA-1, 20 µM): -13%
Relative change in cell cycle distribution G2/M, % (CH1/PA‐1 [8]; CH1/PA-1, 20 µM): 8%
Relative change in cell cycle distribution S, % (CH1/PA‐1 [8]; CH1/PA-1, 20 µM): 5%
Cell cycle distribution G1, % (CH1/PA‐1 [8]; CH1/PA-1, 40 µM): 26 ± 6%
Cell cycle distribution G2/M, % (CH1/PA‐1 [8]; CH1/PA-1, 40 µM): 31 ± 2%
Cell cycle distribution S, % (CH1/PA‐1 [8]; CH1/PA-1, 40 µM): 42 ± 1%
Relative change in cell cycle distribution G1, % (CH1/PA‐1 [8]; CH1/PA-1, 40 µM): -14%
Relative change in cell cycle distribution G2/M, % (CH1/PA‐1 [8]; CH1/PA-1, 40 µM): 7%
Relative change in cell cycle distribution S, % (CH1/PA‐1 [8]; CH1/PA-1, 40 µM): 6%
shift of cell cycle distribution towards S and G2/M phases in total (CH1/PA‐1 [8]; CH1/PA‐1 cells, 40 μM): up to 14%

Cc1c([O-])c(=S)ccn1C.Cc1ccc(C(C)C)cc1.[Cl-].[Ru+2] [Compound 3 a, Chlorido[1,2‐dimethyl‐3‐oxo‐κO‐pyridine‐4(1H)‐thionato‐κS](η^6‐p‐cymene)‐ruthenium(II)]
Cellular accumulation (SW480 cells; 50 μM): 21±5 fg/cell
IC50 (SW480 [1]; [10]): 55 ± 18 µM
IC50 (SW480 [1]; SW480, as listed in Table 3): 54.6 ± 18.4 µM
IC50 (A549 [2]): > 200 µM
IC50 (CH1/PA‐1 [3]): > 200 µM
IC50 (HCT‐116): > 400 µM
IC50 (A549 [4]): > 400 µM
IC50 (CH1/PA‐1 [5]): 267 ± 14 µM
φ0 (chromatographic lipophilicity index) [9]: 5.51
